Measurements taken from US20260209247A1, “Substituted Tricyclic Compounds” (Lupin Limited, priority 2019, published 2026).

The molecules below were run on pERK after EGF stimulation in DLD1 cells (assay: ERK phosphorylation assay (alphascreen pERK)). Conditions: Homo sapiens, DLD-1, 2 h compound, 200 ng/ml hEGF for 5 minutes, read-out: ERK phosphorylation inhibition IC50.
Assay type: cell-based
Method: Compounds were tested for their ability to inhibit pERK after EGF stimulation in DLD1 cells. Cells were seeded at 0.2 million cells per well in 96 well cell binding tissue culture plate in 100 μL complete media and were allowed to settle overnight (16 to 20 h). On the following day, cells were treated with various concentrations of test compounds for 2 h followed by stimulation with 200 ng/ml hEGF (diluted in PBS) for 5 minutes. Cells were then washed once with PBS and lysed in freshly prepared lysis buffer (provided with alphascreen surefire ERK1/2 p-T202/Y204 assay kit, cat no: TGRESB10K, Perkin Elmer). Lysis was carried out in plate shaker for 10-15 mins. Lysate was transferred to […] white opti-plate (Perkin Elmer) and alphascreen for pERK was carried out as per manufacturer's instructions. Plate was read after 2 h incubation in plate shaker at […] 300 RPM, 25-28° C. The difference between the unstimulated and stimulated Vehicle control is considered as 100% ERK phosphorylation, and % inhibition of compounds is calculated accordingly.

Row | IC50 | SMILES
1 | 201 to 500 nM | Cc1nc(NC(C)c2cccc(C(O)(CO)C(F)(F)F)c2F)c2cc3c(cc2n1)OC(C)(C)C(=O)N3C (racemic) [Compound 22, 4-(((R&S)-1-(2-Fluoro-3-((R&S)-1,1,1-trifluoro-2,3-dihydroxypropan-2-yl)phenyl)ethyl)amino)-2,6,8,8-tetramethyl-6H-[1,4]oxazino[3,2-g]quinazolin-7(8H)-one]
2 | 201 to 500 nM | CO[C@]1(C)C(=O)N(C)c2cc3c(N[C@H](C)c4cccc(C(F)(F)[C@](C)(O)CO)c4F)nc(C)nc3cc21 (racemic) [Compound 103, (S/R)-4-(((R/S)-1-(3-((R/S)-1,1-difluoro-2,3-dihydroxy-2-methylpropyl)-2-fluorophenyl)ethyl)amino)-8-methoxy-2,6,8-trimethyl-6,8-dihydro-7H-pyrrolo[2,3-g]quinazolin-7-one]
3 | 1 to 200 nM | Cc1nc(N[C@H](C)c2cccc(C(F)(F)[C@@](C)(O)CN(C)C)c2F)c2cc3c(cc2n1)C(C)(C)C(=O)N3C (racemic) [Compound 129b, 4-(((R)-1-(3-((S/R)-3-(dimethylamino)-1,1-difluoro-2-hydroxy-2-methylpropyl)-2-fluorophenyl)ethyl)amino)-2,6,8,8-tetramethyl-6,8-dihydro-7H-pyrrolo[2,3-g]quinazolin-7-one]
4 | 1 to 200 nM | CNC[C@](C)(O)C(F)(F)c1cccc([C@@H](C)Nc2nc(C)nc3cc4c(cc23)N(C)C(=O)C4(C)C)c1F (racemic) [Compound 130b, 4-(((R)-1-(3-((S/R)-1,1-difluoro-2-hydroxy-2-methyl-3-(methylamino)propyl)-2-fluorophenyl)ethyl)amino)-2,6,8,8-tetramethyl-6,8-dihydro-7H-pyrrolo[2,3-g]quinazolin-7-one]
5 | 201 to 500 nM | Cc1nc(N[C@H](C)c2cccc(C3CCCNC3)c2F)c2cc3c(cc2n1)C(C)(C)C(=O)N3C (mixture of isomers) [Compound 133, (R & S)-4-(((R)-1-(2-fluoro-3-((R & S)-piperidin-3-yl)phenyl)ethyl)amino)-2,6,8,8-tetramethyl-6,8-dihydro-7H-pyrrolo[2,3-g]quinazolin-7-one]
6 | 1 to 200 nM | COC1(C)C(=O)N(C)c2cc3nc(C)nc(N[C@H](C)c4cc(N)cc(C(F)(F)F)c4)c3cc21 (mixture of isomers) [Compound 137, 4—(((R)-1-(3-amino-5-(trifluoromethyl)phenyl)ethyl)amino)-6-methoxy-2,6,8-trimethyl-6,8-dihydro-7H-pyrrolo[3,2-g]quinazolin-7-one]
7 | 1 to 200 nM | Cc1nc(NC(C)c2cc(N)cc(C(F)F)c2)c2cc3c(cc2n1)OCC(=O)N3C (single isomer, unassigned) [Compound 5, (R/S)-4-((1-(3-Amino-5-(difluoromethyl)phenyl)ethyl)amino)-2,6-dimethyl-6H-[1,4]oxazino[3,2-g]quinazolin-7(8H)-one]
8 | 201 to 500 nM | Cc1nc(N[C@H](C)c2cccc([C@@](O)(CO)C(F)(F)F)c2F)c2cc3c(cc2n1)OC(C)(C)C(=O)N3C (single isomer, unassigned) [Compound 22b, 4-(((R/S)-1-(2-fluoro-3-((R/S)-1,1,1-trifluoro-2,3-dihydroxypropan-2-yl)phenyl)ethyl)amino)-2,6,8,8-tetramethyl-6H-[1,4]oxazino[3,2-g]quinazolin-7(8H)-one]
9 | 1 to 200 nM | Cc1nc(N[C@H](C)c2cccc(C(F)(F)C(C)(C)O)c2F)c2cc3c(cc2n1)O[C@@H](C(C)C)C(=O)N3C (single isomer, unassigned) [Compound 32a]
10 | 1 to 200 nM | Cc1nc(N[C@H](C)c2cc(N)cc(C(F)(F)F)c2)c2cc3c(cc2n1)OCCN3CC1CCOC1 (single isomer, unassigned) [Compound 43]
11 | 1 to 200 nM | Cc1nc(NC(C)c2cc(N)cc(C(F)F)c2)c2cc3c(cc2n1)C(C)(C)C(=O)N3C (single isomer, unassigned) [Compound 69, (R/S)-4-((1-(3-amino-5-(difluoromethyl)phenyl)ethyl)amino)-2,6,8,8-tetramethyl-6H-pyrrolo[2,3-g]quinazolin-7(8H)-one]
12 | 201 to 500 nM | Cc1nc(N[C@H](C)c2cccc(C(F)(F)[C@](C)(O)CO)c2F)c2cc3c(cc2n1)C(C)(C)C(=O)N3C (single isomer, unassigned) [Compound 76b]
13 | 201 to 500 nM | Cc1nc(N[C@H](C)c2cccc(C(F)(F)C(C)(C)O)c2F)c2cc3c(cc2n1)C(C)(F)C(=O)N3C (single isomer, unassigned) [Compound 116a]
14 | 1 to 200 nM | Cc1nc(N[C@H](C)c2cccc(C(F)(F)C(C)(C)O)c2F)c2cc3c(cc2n1)[C@](C)(F)C(=O)N3C (single isomer, unassigned) [Compound 116b]
15 | 1 to 200 nM | COCCC1(C)C(=O)N(C)c2cc3c(N[C@H](C)c4cccc(C(F)(F)C(C)(C)O)c4F)nc(C)nc3cc21 (single isomer, unassigned) [Compound 123b]
16 | 201 to 500 nM | COC1(C(F)(F)F)C(=O)N(C)c2cc3c(N[C@H](C)c4cccc(C(F)(F)C(C)(C)O)c4F)nc(C)nc3cc21 (single isomer, unassigned) [Compound 125a]
17 | 1 to 200 nM | CO[C@]1(C(F)(F)F)C(=O)N(C)c2cc3c(N[C@H](C)c4cccc(C(F)(F)C(C)(C)O)c4F)nc(C)nc3cc21 (single isomer, unassigned) [Compound 125b]
18 | 1 to 200 nM | CCC1(OC)C(=O)N(C)c2cc3c(N[C@H](C)c4cccc(C(F)(F)C(C)(C)O)c4F)nc(C)nc3cc21 (single isomer, unassigned) [Compound 126a]
19 | 201 to 500 nM | CC[C@@]1(OC)C(=O)N(C)c2cc3c(N[C@H](C)c4cccc(C(F)(F)C(C)(C)O)c4F)nc(C)nc3cc21 (single isomer, unassigned) [Compound 126b]
20 | 201 to 500 nM | COCC(C)(O)C(F)(F)c1cccc([C@@H](C)Nc2nc(C)nc3cc4c(cc23)N(C)C(=O)C4(C)C)c1F (single isomer, unassigned) [Compound 127a]
21 | 1 to 200 nM | COCCC1(OC)C(=O)N(C)c2cc3c(N[C@H](C)c4cccc(C(F)(F)C(C)(C)O)c4F)nc(C)nc3cc21 (single isomer, unassigned) [Compound 132a]
22 | 201 to 500 nM | Cc1nc(NC(C)c2cccc(C(F)(F)F)c2F)c2cc3c(cc2n1)C(C)(C)C(=O)N3C (single isomer, unassigned) [Compound 134, (R/S)-4-((1-(2-fluoro-3-(trifluoromethyl)phenyl)ethyl)amino)-2,6,8,8-tetramethyl-6,8-dihydro-7H-pyrrolo[2,3-g]quinazolin-7-one]
23 | 201 to 500 nM | Cc1nc(N[C@H](C)c2cccc(C(F)(F)C(C)(C)O)c2F)c2cc3c(cc2n1)OCC(=O)N3C [Compound 3, (R)-4-((1-(3-(1,1-difluoro-2-hydroxy-2-methylpropyl)-2-fluorophenyl)ethyl)amino)-2,6-dimethyl-6H-[1,4]oxazino[3,2-g]quinazolin-7(8H)-one]
24 | 1 to 200 nM | CCc1nc(N[C@H](C)c2cc(N)cc(C(F)(F)F)c2)c2cc3c(cc2n1)OCC(=O)N3C [Compound 14, (R)-4-((1-(3-amino-5-(trifluoromethyl)phenyl)ethyl)amino)-2-ethyl-6-methyl-6H-[1,4]oxazino[3,2-g]quinazolin-7(8H)-one]

Row | SMILES | IC50
25 | COC1(C)C(=O)N(C)c2cc3nc(C)nc(N[C@H](C)c4cccc(C(F)(F)C(C)(C)O)c4F)c3cc21 (single isomer, unassigned) [Compound 96b] | 1 to 200 nM
